Experimental data taken from patent EP3928779A1 (Chugai Seiyaku Kabushiki Kaisha, priority 2014, dated 2016).

Each molecule was assayed on rat small-intestinal brush border membrane vesicles (assay: Inhibitory effect on 33PO4 uptake into rat small-intestinal brush border membrane vesicles (rapid filtration method)). Details: 33PO4 uptake into rat small-intestinal BBMVs; test compound 1 µM; reacted for 60 seconds.
Format: biochemical
Outline: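 Uptake of ^33PO4 was measured by rapid filtration and liquid scintillation counting of filter-retained vesicles, after quenching with ice-cold 110 mM NaCl/1 mM KH2PO4/10 mM HEPES pH 7.5. Vesicles were brush border membranes from the upper small intestine of female Wistar rats aged 4–5 weeks.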
For `C[C@]12CCCN1N(Cc1c(Cl)cc(OCCN3CCOCC3)cc1Cl)C(=O)C(C(=O)Nc1cnc(C(F)(F)F)nc1-c1ccc(C(F)(F)F)nc1)=C2O.Cl` [Example 146, (4aR)-1-[[2,6-Dichloro-4-(2-morpholin-4-ylethoxy)phenyl]methyl]-4-hydroxy-4a-methyl-2-oxo-N-[2-(trifluoromethyl)-4-[6-(trifluoromethyl)pyridin-3-yl]pyrimidin-5-yl]-6,7-dihyvdro-5H-pyrrolo[1,2-b]pyridazine-3-carboxamide hydrochloride], the “Rate of uptake inhibition (%) (1 µM)” value was 71%. For `C[C@]12CCCN1N(Cc1c(Cl)cc(OCCN3CCOCC3)cc1Cl)C(=O)C(C(=O)Nc1ccc(C(F)(F)F)nc1-c1ccc(C(F)(F)F)nc1)=C2O.Cl` [Example 148, (4aR)-1-[[2,6-Dichloro-4-(2-morpholin-4-ylethoxy)phenyl]methyl]-4-hydroxy-4a-methyl-2-oxo-N-[6-(trifluoromethyl)-2-16-(trifluoromethyl)pyridin-3-yl]pyridin-1-yl]-6,7-dihydro-5H-pyrrolo[1,2-bipyridazine-3-carboxamide hydrochloride], the “Rate of uptake inhibition (%) (1 µM)” value was 75%. In the case of `C[C@]12CCCN1N(Cc1ccc(OCCN3CCOCC3)c(Cl)c1)C(=O)C(C(=O)Nc1ccc(C(F)(F)F)cc1-c1ccc(C(F)(F)F)nc1)=C2O` [Example 149, (4aR)-1-[[3-Chloro-4-(2-morpholin-4-ylethoxy)phepyl]methyl]-4-hydroxy-4a-methyl-2-oxo-N-[4-(trifluoromethyl)-2-[6-(trifluoromethyl)pyridin-3-yl]phenyl]-6,7-dihydro-5H-pyrrolo[1,2-b]pyridazine-3-carboxamide], the “Rate of uptake inhibition (%) (1 µM)” value was 80%. With `COC(=O)COc1ccc(CN2C(=O)C(C(=O)Nc3ccc(C(F)(F)F)cc3-c3ccc(C(F)(F)F)nc3)=C(O)[C@@]3(C)CCCN23)c(F)c1F` [Example 150, Methyl 2-[4-[[(4aR)-4-Hydroxy-4a-methyl-2-oxo-3-[[4-(trifluoromethyl)-2-[6-(trifluoromethyl)pyridin-3-yl]phenyl]carbamoy]-6,7-dihydro-5H-pyrrolor[1,2-b]pyridazin-1-yl]methyl]-2,3-difluorophenoxy] acetate] the “Rate of uptake inhibition (%) (1 µM)” value was 87%. For `COc1cccc(-c2cc(C(F)(F)F)ccc2NC(=O)C2=C(O)[C@@]3(C)CCCN3N(Cc3ccc(OCc4ccncc4)c(F)c3F)C2=O)c1OC` [Example 151], the “Rate of uptake inhibition (%) (1 µM)” value was 92%. For `C[C@]12CCCN1N(Cc1c(F)cc(OCCCCCOC[C@@H](O)CO)cc1F)C(=O)C(C(=O)Nc1ccc(C(F)(F)F)cc1-c1ccc(C(F)(F)F)nc1)=C2O` [Example 153], the “Rate of uptake inhibition (%) (1 µM)” value was 73%. `C[C@]12CCCN1N(Cc1c(F)cc(OCCCCCCOC[C@@H](O)CO)cc1F)C(=O)C(C(=O)Nc1ccc(C(F)(F)F)cc1-c1ccc(C(F)(F)F)nc1)=C2O` [Example 154] was tested, and the “Rate of uptake inhibition (%) (1 µM)” value was 73%. For `C[C@]12CCCN1N(Cc1c(F)cc(OCCCCCCOC[C@H](O)CO)cc1F)C(=O)C(C(=O)Nc1ccc(C(F)(F)F)cc1-c1ccc(C(F)(F)F)nc1)=C2O` [Example 155], the “Rate of uptake inhibition (%) (1 µM)” value was 77%. `COc1cccc(-c2cc(C(F)(F)F)ccc2NC(=O)C2=C(O)[C@@]3(C)CCCN3N(Cc3ccc(OC4CCOCC4)c(F)c3F)C2=O)c1OC` [Example 158] was tested, and the “Rate of uptake inhibition (%) (1 µM)” value was 84%. With `COc1cccc(-c2cc(C(F)(F)F)ccc2NC(=O)C2=C(O)[C@@]3(C)CCCN3N(Cc3ccc(OC[C@H]4CCCO4)c(F)c3F)C2=O)c1OC` [Example 159] the “Rate of uptake inhibition (%) (1 µM)” value was 89%. `C[C@]12CCCN1N(Cc1ccc(OC[C@H]3CCCO3)c(F)c1F)C(=O)C(C(=O)Nc1ccc(C(F)(F)F)cc1-c1ccc(C(F)(F)F)nc1)=C2O` [Example 160] was tested, and the “Rate of uptake inhibition (%) (1 µM)” value was 77%. With `C[C@]12CCCN1N(Cc1ccc(OCCCCCO)c(F)c1F)C(=O)C(C(=O)Nc1ccc(C(F)(F)F)cc1-c1cc(C(F)(F)F)ncn1)=C2O` [Example 162] the “Rate of uptake inhibition (%) (1 µM)” value was 73%. `C[C@]12CCCN1N(Cc1ccc(SCCN3CCOCC3)c(F)c1F)C(=O)C(C(=O)Nc1ccc(C(F)(F)F)cc1-c1ccc(C(F)(F)F)nc1)=C2O.Cl` [Example 163, (4aR)-1-[[2,3-Difluoro-4-(2-morpholin-4-ylethylsulfanyl)phenyl]methyl]-4-hydroxy-4a-methyl-2-oxo-N-[4-(trifluoromethyl)-2-[6-(trifluoromethyl)pyridin-3-yl]phenyl]-6,7-dihydro-5H-pyrrolo[1,2-b]pyridazine-3-carboxamide hydrochloride] was tested, and the “Rate of uptake inhibition (%) (1 µM)” value was 79%. In the case of `COC(=O)c1cc(F)c(CN2C(=O)C(C(=O)Nc3ccc(C(F)(F)F)cc3-c3ccc(C(F)(F)F)nc3)=C(O)[C@@]3(C)CCCN23)c(F)c1` [Example 165, Methyl 4-[[(4aR)-4-Hydroxy-4a-methyl-2-oxo-3-[[4-(trifluoromethyl)-2-[6-(trifluoromethyl)pyridin-3-yl]phenyl]carbamoyl]-6,7-dihydro-5H-pyrrolo[1,2-b]pyridazin-1 - yl]methyl]-3,5-difluorobenzoate], the “Rate of uptake inhibition (%) (1 µM)” value was 75%. For `C[C@]12CCCN1N(Cc1ccc(Br)cc1F)C(=O)C(C(=O)Nc1cc(F)c(Br)c(F)c1)=C2O` [Example 166, (4aR)-N-(4-Bromo-3,5-difluorophenyl)-1-[(4-bromo-2-fluorophenyl)methyl]-4-hydroxy-4a-methyl-2-oxo-6,7-dihydro-5H-pyrrolo[1,2-b]pyridazine-3-carboxamide], the “Rate of uptake inhibition (%) (1 µM)” value was 73%. `C[C@]12CCCN1N(Cc1cccc(OC(F)F)c1)C(=O)C(C(=O)Nc1ccc(C(F)(F)F)cc1-c1ccc(C(F)(F)F)nc1)=C2O` [Example 167] was tested, and the “Rate of uptake inhibition (%) (1 µM)” value was 73%. With `C[C@]12CCCN1N(Cc1ccccc1Cl)C(=O)C(C(=O)Nc1ccc(C(F)(F)F)cc1-c1ccc(C(F)(F)F)nc1)=C2O` [Example 168] the “Rate of uptake inhibition (%) (1 µM)” value was 72%. With `C[C@]12CCCN1N(Cc1cccc(Cl)c1)C(=O)C(C(=O)Nc1ccc(C(F)(F)F)cc1-c1ccc(C(F)(F)F)nc1)=C2O` [Example 169] the “Rate of uptake inhibition (%) (1 µM)” value was 73%. For `C[C@]12CCCN1N(Cc1ccc(F)c(F)c1)C(=O)C(C(=O)Nc1ccc(C(F)(F)F)cc1-c1ccc(C(F)(F)F)nc1)=C2O` [Example 170], the “Rate of uptake inhibition (%) (1 µM)” value was 73%. In the case of `C[C@]12CCCN1N(Cc1cc(F)cc(F)c1)C(=O)C(C(=O)Nc1ccc(C(F)(F)F)cc1-c1ccc(C(F)(F)F)nc1)=C2O` [Example 171], the “Rate of uptake inhibition (%) (1 µM)” value was 78%. For `C[C@]12CCCN1N(Cc1cc(F)ccc1F)C(=O)C(C(=O)Nc1ccc(C(F)(F)F)cc1-c1ccc(C(F)(F)F)nc1)=C2O` [Example 172], the “Rate of uptake inhibition (%) (1 µM)” value was 72%. For `C[C@]12CCCN1N(Cc1ccc(F)cc1F)C(=O)C(C(=O)Nc1ccc(C(F)(F)F)cc1-c1ccc(C(F)(F)F)nc1)=C2O` [Example 173], the “Rate of uptake inhibition (%) (1 µM)” value was 73%. With `C[C@]12CCCN1N(Cc1cccc(F)c1Cl)C(=O)C(C(=O)Nc1cc(F)c(Br)c(F)c1)=C2O` [Example 174] the “Rate of uptake inhibition (%) (1 µM)” value was 87%. With `COc1cccc(CN2C(=O)C(C(=O)Nc3ccc(C(F)(F)F)cc3-c3ccc(C(F)(F)F)nc3)=C(O)[C@@]3(C)CCCN23)c1OC` [Example 175] the “Rate of uptake inhibition (%) (1 µM)” value was 85%. For `COc1ccc(OC)c(CN2C(=O)C(C(=O)Nc3ccc(C(F)(F)F)cc3-c3ccc(C(F)(F)F)nc3)=C(O)[C@@]3(C)CCCN23)c1` [Example 176], the “Rate of uptake inhibition (%) (1 µM)” value was 75%. For `C[C@]12CCCN1N(Cc1cccc(OC(F)F)c1)C(=O)C(C(=O)Nc1ccc(C(F)(F)F)cc1-c1cc(C(F)(F)F)ncn1)=C2O` [Example 177], the “Rate of uptake inhibition (%) (1 µM)” value was 85%. In the case of `C[C@]12CCCN1N(Cc1ccccc1C#N)C(=O)C(C(=O)Nc1ccc(C(F)(F)F)cc1-c1cc(C(F)(F)F)ncn1)=C2O` [Example 178], the “Rate of uptake inhibition (%) (1 µM)” value was 81%. With `C[C@]12CCCN1N(Cc1cccc(C#N)c1)C(=O)C(C(=O)Nc1ccc(C(F)(F)F)cc1-c1cc(C(F)(F)F)ncn1)=C2O` [Example 179] the “Rate of uptake inhibition (%) (1 µM)” value was 83%. In the case of `C[C@]12CCCN1N(Cc1ccccc1Cl)C(=O)C(C(=O)Nc1ccc(C(F)(F)F)cc1-c1cc(C(F)(F)F)ncn1)=C2O` [Example 180], the “Rate of uptake inhibition (%) (1 µM)” value was 75%. In the case of `C[C@]12CCCN1N(Cc1cccc(Cl)c1)C(=O)C(C(=O)Nc1ccc(C(F)(F)F)cc1-c1cc(C(F)(F)F)ncn1)=C2O` [Example 181], the “Rate of uptake inhibition (%) (1 µM)” value was 85%. For `C[C@]12CCCN1N(Cc1ccc(Cl)cc1)C(=O)C(C(=O)Nc1ccc(C(F)(F)F)cc1-c1cc(C(F)(F)F)ncn1)=C2O` [Example 182], the “Rate of uptake inhibition (%) (1 µM)” value was 86%. `COC(=O)c1cccc(CN2C(=O)C(C(=O)Nc3ccc(C(F)(F)F)cc3-c3cc(C(F)(F)F)ncn3)=C(O)[C@@]3(C)CCCN23)c1` [Example 183] was tested, and the “Rate of uptake inhibition (%) (1 µM)” value was 82%. For `C[C@]12CCCN1N(Cc1ccc(F)c(Br)c1)C(=O)C(C(=O)Nc1ccc(C(F)(F)F)cc1-c1cc(C(F)(F)F)ncn1)=C2O` [Example 184], the “Rate of uptake inhibition (%) (1 µM)” value was 79%. For `Cc1ccccc1CN1C(=O)C(C(=O)Nc2ccc(C(F)(F)F)cc2-c2cc(C(F)(F)F)ncn2)=C(O)[C@@]2(C)CCCN12` [Example 185], the “Rate of uptake inhibition (%) (1 µM)” value was 83%. `Cc1cccc(CN2C(=O)C(C(=O)Nc3ccc(C(F)(F)F)cc3-c3cc(C(F)(F)F)ncn3)=C(O)[C@@]3(C)CCCN23)c1` [Example 186] was tested, and the “Rate of uptake inhibition (%) (1 µM)” value was 88%. With `Cc1ccc(CN2C(=O)C(C(=O)Nc3ccc(C(F)(F)F)cc3-c3cc(C(F)(F)F)ncn3)=C(O)[C@@]3(C)CCCN23)cc1` [Example 187] the “Rate of uptake inhibition (%) (1 µM)” value was 80%. In the case of `C[C@]12CCCN1N(Cc1ccccc1)C(=O)C(C(=O)Nc1ccc(C(F)(F)F)cc1-c1cc(C(F)(F)F)ncn1)=C2O` [Example 188], the “Rate of uptake inhibition (%) (1 µM)” value was 93%. With `C[C@]12CCCN1N(Cc1cccc(OC(F)(F)F)c1)C(=O)C(C(=O)Nc1ccc(C(F)(F)F)cc1-c1cc(C(F)(F)F)ncn1)=C2O` [Example 189] the “Rate of uptake inhibition (%) (1 µM)” value was 73%. `C[C@]12CCCN1N(Cc1cc(F)cc(F)c1)C(=O)C(C(=O)Nc1cc(F)c(Br)c(F)c1)=C2O` [Example 190] was tested, and the “Rate of uptake inhibition (%) (1 µM)” value was 84%. `C[C@]12CCCN1N(Cc1ccc(F)c(F)c1)C(=O)C(C(=O)Nc1cc(F)c(Br)c(F)c1)=C2O` [Example 191] was tested, and the “Rate of uptake inhibition (%) (1 µM)” value was 87%. `C[C@]12CCCN1N(Cc1ccc(F)cc1F)C(=O)C(C(=O)Nc1cc(F)c(Br)c(F)c1)=C2O` [Example 192] was tested, and the “Rate of uptake inhibition (%) (1 µM)” value was 88%.
